Assay results from patent US11213529B2, “Salt of substituted urea derivative and use thereof in medicine” (SUNSHINE LAKE PHARMA CO. LTD., priority 2017, dated 2022).
Like-named read-outs stand apart in the source and are kept apart here.

Columns and labels:
[1] = Pharmacokinetics experiments of the salts of compound (I), oral capsules; assay type: in vivo, Beagle dogs
Experimental: The free base 1-(5-(tert-butyl)isoxazol-3-yl)-3-(4-((4-(3-morpholinopropoxy)phenyl) ethynyl)phenyl)urea, various salts or crystalline forms thereof were filled into capsules for oral administration respectively. Male Beagle dogs (6-10 kg) were grouped randomly, each group has 3, one was administered with free base by oral, others with various salts or crystalline forms thereof by oral at a dosage of 5 mg/kg. Blood samples were collected at 0.25, 0.5, 1.0, 2.0, 4.0, 6.0, 8.0, 12 and 24 hours after the administration. Standard curve was plotted based on concentrations of the samples in a suitable range, the concentrations of test compounds in plasma samples were determined by using Agilent 6430 LC-MS/MS under MRM mode, and quantitative analysis was performed. Pharmacokinetic parameters were calculated according to drug concentration-time curve using a noncompartmental method by WinNonLin 6.3 software.

[2] = for Purity/%: HPLC
Source text: Samples were taken at fifth and tenth day, appearance was observed and purity was detected by HPLC.

[3] = for Appearance / Purity/%: illumination 4500±500 lx, UV; for Purity/%: HPLC
[4] = male Beagle dogs, oral capsule, 5 mg/kg, plasma
[5] = High humidity (25° C., RH 90% ± 5%), 0 day
[6] = High humidity (25° C., RH 90% ± 5%), 5 days
[7] = High humidity (25° C., RH 90% ± 5%), 10 days
[8] = High temperature (60° C. ± 2° C.), 0 day
[9] = High temperature (60° C. ± 2° C.), 5 days
[10] = High temperature (60° C. ± 2° C.), 10 days
[11] = dog, male Beagle dogs, oral capsule, 5 mg/kg, plasma

Q: What does the source list for CC(C)(C)c1cc(NC(=O)Nc2ccc(C#Cc3ccc(OCCCN4CCOCC4)cc3)cc2)no1.O=S(=O)(O)c1ccccc1 [Benzene sulfonate crystaline form I]?
A: absorption ([1]; beagle dogs, oral 5 mg/kg): faster; exposure level compared with the free base ([1]; beagle dogs, oral 5 mg/kg): higher; AUCINF [1, 4]: 592 ng·h/mL; AUClast [1, 4]: 575 ng·h/mL; Cmax [1, 4]: 92.3 ng/mL; MRTINF [1, 4]: 6.55 h; T1/2 [1, 4]: 5.26 h; Tmax [1, 4]: 1 h; Appearance [2, 5]: yellow; Purity/% [2, 5]: 98.61%; Appearance [2, 6]: yellow; Hygroscopic weight gain/% [2, 6]: 0.388%; Purity/% [2, 6]: 98.59%; Appearance [2, 7]: yellow; Hygroscopic weight gain/% [2, 7]: 1.100%; Purity/% [2, 7]: 98.59%; Appearance [2, 8]: yellow; Purity/% [2, 8]: 98.61%; Appearance [2, 9]: yellow; Purity/% [2, 9]: 98.64%; Appearance [2, 10]: yellow; Purity/% [2, 10]: 98.61%; hygroscopicity characteristics ([2]; from weight gain under high humidity for 10 days): slightly hygroscopicity (less than 2% but no less than 0.2%); change of appearance and purity ([2]; high humidity (25° C., RH 90%±5%)): have not been changed distinctly; change of appearance and purity ([2]; high temperature (60° C.±2° C.)): have not been changed distinctly; change of appearance and purity ([3]; illumination): have not been changed distinctly; Appearance ([3]; 0 day): yellow; Purity/% ([3]; 0 day): 98.61%; Appearance ([3]; 5 days): yellow; Purity/% ([3]; 5 days): 98.67%; Appearance ([3]; 13 days): yellow; Purity/% ([3]; 13 days): 98.71%

Q: Which AUC(0-inf) [1, 11] does the source give for CC(C)(C)c1cc(NC(=O)Nc2ccc(C#Cc3ccc(OCCCN4CCOCC4)cc3)cc2)no1 [Free base, 1-(5-(tert-butyl)isoxazol-3-yl)-3-(4-((4-(3-morpholinopropoxy)phenyl)ethynyl)phenyl)urea] here?
A: Its AUC(0-inf) is 423 ng·h/mL.

Q: And the AUC(0-t) [1, 11]?
A: The AUC(0-t) was 389 ng·h/mL.

Q: And the MRT inf [1, 11]?
A: Its MRT inf is 7.52 h.

Q: And the half-life [1, 11]?
A: The half-life was 5.95 h.

Q: What about the Cmax ([1]; dog, male Beagle dogs, oral capsule, 5 mg/kg, plasma, read-out: Cmax) of the same compound?
A: The Cmax was 60.9 ng/mL.

Q: And the Tmax ([1]; dog, male Beagle dogs, oral capsule, 5 mg/kg, plasma, read-out: Tmax)?
A: Its Tmax is 1.67 h.

Q: What does the source list for Br.CC(C)(C)c1cc(NC(=O)Nc2ccc(C#Cc3ccc(OCCCN4CCOCC4)cc3)cc2)no1 [Hydrobromide crystaline form I]?
A: AUCINF [1, 4]: 225 ng·h/mL; AUClast [1, 4]: 401 ng·h/mL; Cmax [1, 4]: 36.4 ng/mL; MRTINF [1, 4]: 8.54 h; T1/2 [1, 4]: 6.64 h; Tmax [1, 4]: 1.33 h

Q: For CC(C)(C)c1cc(NC(=O)Nc2ccc(C#Cc3ccc(OCCCN4CCOCC4)cc3)cc2)no1.Cl [Hydrochloride crystaline form I], which AUCINF [1, 4] is on record?
A: The AUCINF was 371 ng·h/mL.

Q: What about the AUClast [1, 4] of the same compound?
A: Its AUClast is 358 ng·h/mL.

Q: And the Cmax [1, 4]?
A: Its Cmax is 51.2 ng/mL.

Q: What about the MRTINF [1, 4] of the same compound?
A: Its MRTINF is 6.5 h.

Q: What about the T1/2 [1, 4] of the same compound?
A: The T1/2 was 4.86 h.

Q: What about the Tmax [1, 4] of the same compound?
A: Its Tmax is 1.67 h.
